Test results taken from BindingDB's records for doi:10.1124/jpet.103.052852 (Eli Lilly, 2003).
pKi: −log10 of the molar value.

Key:
[1] = target: T1, Oxysterols receptor LXR-beta (Homo sapiens, UniProt P55055)
T1 sequence (P55055 whole entry): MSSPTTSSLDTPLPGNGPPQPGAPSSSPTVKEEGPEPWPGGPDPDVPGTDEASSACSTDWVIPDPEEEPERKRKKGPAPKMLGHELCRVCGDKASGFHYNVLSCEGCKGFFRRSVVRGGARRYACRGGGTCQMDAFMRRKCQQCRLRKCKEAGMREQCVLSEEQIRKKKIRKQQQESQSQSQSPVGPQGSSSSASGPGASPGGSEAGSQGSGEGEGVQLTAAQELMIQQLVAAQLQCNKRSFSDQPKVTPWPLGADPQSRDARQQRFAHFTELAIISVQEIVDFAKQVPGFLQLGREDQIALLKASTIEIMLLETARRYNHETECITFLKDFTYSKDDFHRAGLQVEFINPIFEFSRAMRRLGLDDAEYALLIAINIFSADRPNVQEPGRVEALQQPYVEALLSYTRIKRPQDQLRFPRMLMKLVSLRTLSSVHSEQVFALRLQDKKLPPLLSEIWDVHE

[2] = target: T2, Oxysterols receptor LXR-alpha (Homo sapiens, UniProt Q13133)
T2 sequence (Q13133 whole entry): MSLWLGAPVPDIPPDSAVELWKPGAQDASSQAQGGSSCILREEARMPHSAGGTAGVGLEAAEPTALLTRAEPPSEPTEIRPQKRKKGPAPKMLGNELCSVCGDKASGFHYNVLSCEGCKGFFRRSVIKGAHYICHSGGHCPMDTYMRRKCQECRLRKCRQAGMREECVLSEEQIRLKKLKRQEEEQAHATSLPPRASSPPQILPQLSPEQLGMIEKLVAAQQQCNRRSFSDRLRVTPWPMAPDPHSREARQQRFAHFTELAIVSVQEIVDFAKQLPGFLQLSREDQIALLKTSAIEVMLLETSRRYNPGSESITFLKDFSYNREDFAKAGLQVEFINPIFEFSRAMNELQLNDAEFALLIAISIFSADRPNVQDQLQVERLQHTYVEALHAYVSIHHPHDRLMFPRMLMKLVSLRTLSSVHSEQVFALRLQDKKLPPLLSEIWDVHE

Compound | pKi [1] | pKi [2]
CC(C)CC[C@H](O)[C@@H](C)[C@H]1CC[C@H]2[C@@H]3CC=C4C[C@@H](O)CC[C@]4(C)[C@H]3CC[C@]12C [(1S,2R,5S,10S,11S,14R,15S)-14-[(2S,3S)-3-hydroxy-6-methylheptan-2-yl]-2,15-dimethyltetracyclo[8.7.0.0^{2,7}.0^{11,15}]heptadec-7-en-5-ol] | 6.31 | 6.60
CC(C)(O)C1OC2CCC3(C)C(O)(CCC4Cc5c([nH]c6ccccc56)C43C)C2=CC1=O (stereo not drawn) [CAS_57186-25-1] | 5.96 | 
